Test results from patent US9573938B2 (priority 2012, dated 2017).
Where two headings read alike, the source gives them in different places.

What was measured:
[1] = target: 2009 H1N1 influenza A endonuclease (PAN domain) (Influenza A virus, UniProt C3W5S0); assay: biochemical; design: species or system Influenza A (pandemic 2009 H1N1); details: fluorescence change over time at 37 degrees Celsius
[2] = 500 nM or 50 nM enzyme, read-out: IC50 (uM) using either 500 nM or 50 nM enzyme
[3] = IC50 (uM) using either 500 nM or 50 nM enzyme

SMILES | IC50 [1, 3] [µM] | also measured
O=c1[nH]c(-c2ccc(-c3nnn[nH]3)cc2)ncc1O [2-(4-(1H-Tetrazol-5-yl)phenyl)-5-hydroxypyrimidin-4(3H)-one] |  | IC50 [1, 2]: 0.15 µM
O=c1[nH]c(Cc2ccc(-c3ccccc3)cc2)c(-c2ccc(F)cc2)cc1O [6-([1,1′-Biphenyl]-4-ylmethyl)-5-(4-fluorophenyl)-3-hydroxypyridin-2(1H)-one] | 0.12 | 
O=c1[nH]nc(-c2ccc(F)cc2)cc1O [6-(4-Fluorophenyl)-4-hydroxypyridazin-3(2H)-one] |  | IC50 [1, 2]: 6 µM; melting point: 281 to 283 °C
O=c1[nH]ncc(-c2ccc(F)cc2)c1O [5-(4-Fluorophenyl)-4-hydroxypyridazin-3(2H)-one] | > 200 | melting point: 274 to 276 °C
COc1cccc(-c2ccc(O)c(=O)[nH]2)c1 [6-(3-Methoxyphenyl)-3-hydroxypyridin-2(1H)one] | 0.54 | 
O=c1[nH]c(-c2ccc(F)cc2)c(-c2cccc(-c3nnn[nH]3)c2)cc1O [5-(3-(1H-Tetrazol-5-yl)phenyl)-6-(4-fluorophenyl)-3-hydroxypyridin-2(1H)-one] | 0.034 | 
O=c1[nH]nc(-c2ccc(-c3nnn[nH]3)cc2)cc1O [6-(4-(1H-Tetrazol-5-yl)phenyl)-4-hydroxypyridazin-3(2H)-one] |  | IC50 [1, 2]: 3 µM
O=c1[nH]cc(Cc2ccc(F)cc2)cc1O [5-(4-Fluorobenzyl)-3-hydroxypyridin-2(1H)-one] | 8.6 | 
O=c1[nH]cc(C2CCCCC2)cc1O [5-Cyclohexyl-3-hydroxypyridin-2(1H)-one] | 2.1 | 
O=c1[nH]c(-c2ccc(F)cc2)ccc1O [6-(4-Fluoro-phenyl)-3-hydroxypyridin-2(1H)-one] |  | IC50 [1, 2]: 0.43 µM
O=C(O)c1cccc(-c2cc(O)c(=O)[nH]c2-c2ccc(F)cc2)c1 [3-(2-(4-Fluorophenyl)-5-hydroxy-6-oxo-1,6-dihydropyridin-3-yl)benzoic acid] | 0.035 | 
O=c1[nH]c(-c2ccc(-c3nnn[nH]3)cc2)c(-c2ccc(F)cc2)cc1O [6-(4-(1H-Tetrazol-5-yl)phenyl)-5-(4-fluorophenyl)-3-hydroxypyridin-2(1H)-one] | 0.018 | 
NC(=O)c1cccc(-c2cc(O)c(=O)[nH]c2-c2cccc(C(N)=O)c2)c1 | 0.11 | 
O=c1[nH]c(-c2ccc(C(F)(F)F)cc2)ccc1O [3-Hydroxy-6-(4-(trifluoromethyl)phenyl)pyridin-2(1H)-one] | 0.4 | 
O=c1[nH]c(-c2ccc(F)cc2)c(-c2ccc(F)cc2)cc1O [5,6-bis(4-Fluorophenyl)-3-hydroxypyridin-2(1H)-one] |  | melting point: 152 to 157 °C
N#Cc1ccc(-c2ccc(O)c(=O)[nH]2)cc1 [6-(4-Cyanophenyl-3-hydroxypyridin-2(1H)-one] | 1.2 | 
O=c1[nH]c(-c2cccc(-c3nnn[nH]3)c2)ncc1O [2-(3-(1H-Tetrazol-5-yl)phenyl)-5-hydroxypyrimidin-4(3H)-one] |  | IC50 [1, 2]: 0.48 µM
CC(C)(C)c1ccc(-c2ccc(O)c(=O)[nH]2)cc1 [6-(4-(tert-Butyl)phenyl)-3-hydroxypyridin-2(1H)-one] | 1.6 | 
O=c1[nH]c(-c2ccc([N+](=O)[O-])cc2)c(-c2ccc([N+](=O)[O-])cc2)cc1O [3-Hydroxy-5,6-bis(4-nitrophenyl)pyridin-2(1H)-one] | 0.72 | 
O=c1[nH]cc(-c2cccc(-c3nnn[nH]3)c2)cc1O [5-[3-(1H-Tetrazol-5-yl)phenyl]-3-hydroxypyridin-2(1H)-one] | 0.85 | 
O=c1[nH]c(Br)c(-c2ccc(F)cc2)cc1O [6-Bromo-5-(4-fluorophenyl)-3-hydroxypyridin-2(1H)-one] | 4.2 | 
O=c1[nH]cc(-c2ccc(F)cc2)cc1O [5-(4-Fluorophenyl)-3-hydroxypyridin-2(1H)-one] |  | IC50 [1, 2]: 0.73 µM
O=c1[nH]c(Br)c(Br)cc1O [5,6-Dibromo-3-hydroxypyridin-2(1H)-one] | 1.5 | 

SMILES | IC50 [1, 3] [µM] | also measured
N#Cc1cccc(-c2cc(O)c(=O)[nH]c2-c2ccc(F)cc2)c1 [3-(2-(4-Fluorophenyl)-5-hydroxy-6-oxo-1,6-dihydropyridin-3-yl)benzonitrile] | 0.049 | 
O=C(O)c1cccc(-c2c[nH]c(=O)c(O)c2)c1 [3-(5-Hydroxy-6-oxo-1,6-dihydropyridin-3-yl)benzoic acid] | 1.79 | 
O=c1[nH]c(C2CCCCC2)ccc1O [6-Cyclohexyl-3-hydroxypyridin-2(1H)-one] | 2.5 | 
N#Cc1cccc(-c2ncc(O)c(=O)[nH]2)c1 [3-(5-Hydroxy-6-oxo-1,6-dihydropyrimidin-2-yl)benzonitrile] |  | IC50 [1, 2]: 0.25 µM
O=c1[nH]c(-c2cccc(F)c2)ccc1O [6-(3-Fluorophenyl)-3-hydroxypyridin-2(1H)-one] | 0.53 | 
O=c1[nH]cc(-c2cccc(F)c2)cc1O [5-(3-Fluorophenyl-3-hydroxypyridin-2(1H)-one] | 0.74 | 
O=c1[nH]c(-c2ccc(O)c(O)c2)ccc1O [6-(3,4-Dihydroxyphenyl)-3-hydroxypyridin-2(1H)-one] | 0.6 | 
COc1ccc(-c2ccc(O)c(=O)[nH]2)cc1 [3-Hydroxy-6-(4-methoxyphenyl)pyridin-2(1H)-one] | 1.2 | 
NC(=O)c1ccc(-c2cc(O)c(=O)[nH]c2-c2ccc(C(N)=O)cc2)cc1 | 0.23 | 
O=C(O)c1ccc(-c2cc(O)c(=O)[nH]c2-c2ccc(C(=O)O)cc2)cc1 [4,4′-(5-hydroxy-6-oxo-1,6-dihydropyridine-2,3-diyl)dibenzoic acid] | 0.9 | 
O=c1[nH]c(-c2cccc(F)c2)c(-c2cccc(F)c2)cc1O [5,6-bis(3-Fluorophenyl)-3-hydroxypyridin-2(1H)-one] | 0.044 | 
O=c1[nH]cc(-c2ccc(-c3nnn[nH]3)cc2)cc1O [5-[4-(1H-Tetrazol-5-yl)phenyl]-3-hydroxypyridin-2(1H)-one] | 0.37 | 
O=c1[nH]c(-c2ccc(F)cc2)c(-c2ccc(-c3nnn[nH]3)cc2)cc1O [5-[4-(1H-Tetrazol-5-yl)phenyl]-6-(4-fluorophenyl)-3-hydroxypyridin-2(1H)-one] |  | melting point: 185 to 188 °C
O=C(O)c1ccc(-c2c[nH]c(=O)c(O)c2)cc1 [4-(5-Hydroxy-6-oxo-1,6-dihydropyridin-3-yl)benzoic acid] | 0.51 | 
N#Cc1ccc(-c2c[nH]c(=O)c(O)c2)cc1 [5-(p-Cyanophenyl-3-hydroxypyridin-2(1H)-one] | 6.07 | 
O=c1[nH]c(-c2ccc(-c3nnn[nH]3)cc2)ccc1O [6-[4-(1H-tetrazol-5-yl)phenyl]-3-hydroxypyridin-2(1H)-one] | 0.85 | 
O=c1[nH]cc(Cl)cc1O [5-Chloro-3-hydroxypyridin-2(1H)-one] | 5 | 
O=C(O)c1cccc(-c2cc(O)c(=O)[nH]c2-c2cccc(C(=O)O)c2)c1 [3,3′-(5-Hydroxy-6-oxo-1,6-dihydropyridine-2,3-diyl)dibenzoic acid] | 0.7 | 
N#Cc1ccc(Nc2cc(O)c(=O)[nH]c2-c2ccc(F)cc2)cc1 [4-((2-(4-Fluorophenyl)-5-hydroxy-6-oxo-1,6-dihydropyridin-3-yl)amino)benzonitrile] | 1 | 
O=c1[nH]cc(Br)cc1O [5-Bromo-3-hydroxypyridin-2(1H)-one] | 5 | 
N#Cc1ccc(-c2ncc(O)c(=O)[nH]2)cc1 [4-(5-Hydroxy-6-oxo-1,6-dihydropyrimidin-2-yl)benzonitrile] |  | IC50 [1, 2]: 0.52 µM
O=c1[nH]c(C2=CCCCC2)ccc1O [6-(Cyclohex-1-en-1-yl)-3-hydroxypyridin-2(1H)-one] | 0.75 | 
